# Assay results taken from PubChem BioAssay (NCI).
#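 Growth conditions: 96-well plates. Treatment: test compound, 48 hours, 5 concentrations. Analysis: linear interpolation between bracketing concentrations; unreached endpoints set to highest concentration. The concentration for 50% growth inhibition is given as GI50. Definition used: TGI = concentration required for complete inhibition of growth.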
# Experiments:
# Assay in all cases: NCI anticancer screen, dose series, 48 h
# [1] = tested on: HOP-62 NSCLC
# [2] = tested on: MDA-N
# [3] = tested on: SF-539 CNS
# [4] = tested on: A549 NSCLC
# [5] = tested on: U251 CNS
# [6] = tested on: IGROV1 ovarian
# [7] = tested on: SN12C renal
# [8] = tested on: RPMI-8226 leukemia
# [9] = tested on: COLO 205 colon
# [10] = tested on: OVCAR-4 ovarian
Compound,TGI [1],TGI [2],TGI [3],TGI [4],TGI [5],TGI [6],TGI [7],TGI [8],TGI [9],TGI [10],GI50 [9],GI50 [1],GI50 [3],GI50 [4],GI50 [5],GI50 [6],GI50 [7],GI50 [10],GI50 [8]
CCOC(=O)C1CCCN1C(=O)c1ccccc1Cl (configuration not stated),> 100 µM,> 100 µM,> 100 µM,> 100 µM,> 100 µM,> 100 µM,> 100 µM,> 100 µM,,,,,,,,,,,
Cc1cc(OCC(O)CO)ccc1Cl (configuration not stated),> 100 µM,,> 100 µM,> 100 µM,> 100 µM,> 100 µM,> 100 µM,> 100 µM,> 100 µM,> 100 µM,,,,,,,,,
CC(=O)c1c(O)cc(O)c(-c2c(C)cc(O)c3c2C(=O)c2cccc(O)c2C3=O)c1O,40.5 µM,30.8 µM,30.3 µM,34.2 µM,27.2 µM,29.8 µM,36 µM,35.5 µM,,28.5 µM,,,,,,,,,
CCOP(=O)(Cc1nc(C#N)c(N)o1)OCC,> 100 µM,> 100 µM,,,> 100 µM,> 100 µM,> 100 µM,> 100 µM,> 100 µM,> 100 µM,,,,,,,,,
CC(C)=C=CP(=O)(O)c1ccccc1,> 100 µM,> 100 µM,> 100 µM,> 100 µM,> 100 µM,> 100 µM,> 100 µM,,> 100 µM,> 100 µM,,,,,,,,,
O=C(Cn1c(=O)oc2ccc(C(=O)c3cccc(Cl)c3)cc21)c1ccccc1,> 100 µM,,> 100 µM,> 100 µM,> 100 µM,> 100 µM,> 100 µM,> 100 µM,> 100 µM,> 100 µM,,,,,,,,,
COc1ccc(S(=O)(=O)Nc2cc(Sc3cccc4cccnc34)c(O)c3ccccc23)cc1,21.7 µM,,6.52 µM,12.8 µM,11.9 µM,7.2 µM,4.99 µM,8.92 µM,4.12 µM,1.93 µM,1.66 µM,1.71 µM,1.49 µM,0.587 µM,0.579 µM,1.09 µM,1.06 µM,0.609 µM,2.47 µM
COc1ccc(/C=C(/c2ccc(OC)cc2)c2c(Cl)cc(Cl)c(/C(=C\c3ccc(OC)cc3)c3ccc(OC)cc3)c2N=Nc2ccccc2)cc1,> 100 µM,,> 100 µM,> 100 µM,> 100 µM,> 100 µM,> 100 µM,> 100 µM,> 100 µM,> 100 µM,,,,,,,,,
Clc1ncnc2c1nc(C#Cc1ccccc1)n2C1CCCCO1 (configuration not stated),6.38 µM,8.12 µM,4.28 µM,4.04 µM,4.29 µM,,,,2.97 µM,3.75 µM,,,,,,,,,
CC1CN=C(c2ccc(CN3CCC(CCCC4CCN(Cc5ccc(C6=NCC(C)N6)cc5)CC4)CC3)cc2)N1 (configuration not stated),> 100 µM,38.8 µM,> 100 µM,> 100 µM,> 100 µM,> 100 µM,> 100 µM,,33 µM,57.1 µM,,,,,,,,,
CNC(=O)C1OC(n2cnc3c(NCc4cccc(I)c4)nc(Cl)nc32)C(O)C1O (configuration not stated),25.2 µM,55.4 µM,23 µM,,40.4 µM,27.2 µM,41 µM,> 100 µM,82.6 µM,,,,,,,,,,
CC(C)N1[C@@H]2CCCC[C@H]2N(C(C)C)[P+]1=O,> 100 µM,> 100 µM,> 100 µM,> 100 µM,,,> 100 µM,> 100 µM,> 100 µM,,,,,,,,,,
Cc1cc(OCc2nnc3n2N=C(c2cc(F)c(Cl)cc2Cl)/C(=C/c2ccc(-c4ccc(Cl)cc4)o2)S3)ccc1Cl,> 50 µM,> 50 µM,,> 50 µM,> 50 µM,> 50 µM,> 50 µM,30.2 µM,> 50 µM,,,,,,,,,,
Cc1ccc2c(c1)Nc1ccccc1P2(=O)O,> 100 µM,> 100 µM,> 100 µM,> 100 µM,> 100 µM,> 100 µM,> 100 µM,,> 100 µM,> 100 µM,,,,,,,,,
NS(=O)(=O)c1ccc(NCc2nc3ccccc3[nH]2)cc1,> 100 µM,> 100 µM,> 100 µM,> 100 µM,> 100 µM,> 100 µM,> 100 µM,,> 100 µM,> 100 µM,,,,,,,,,
OC(CCl)CN1CC[N+]2(CC1)CC[N+]1(CCN(CC(O)CCl)CC1)CC2 (configuration not stated),,,> 50 µM,> 50 µM,> 50 µM,> 50 µM,> 50 µM,> 50 µM,> 50 µM,> 50 µM,,,,,,,,,
CC(C)(C)CC(C)(C)NCC(O)COc1ccc(C(C)(C)c2ccc(OCC(O)CNC(C)(C)CC(C)(C)C)cc2)cc1 (configuration not stated),3.19 µM,,3.33 µM,3.02 µM,2.2 µM,3.23 µM,3.04 µM,,1.47 µM,3.23 µM,,,,,,,,,
